Data: US20250017848A1, “CARRIER OR AUXILIARY MATERIAL OF OPHTHALMIC PREPARATION, PREPARATION METHOD THEREFOR, AND APPLICATION THEREOF” (CHENGDU RUIMU BIOPHARMACEUTICALS CO., LTD., priority 2021, published 2025)
Values after ≈ are worked out from the molar mass of the structure shown. Values joined by “and” are separate entries in the source; they are usually repeats but may differ in a detail not shown here. Equal entries are not always repeated. Values belong to the compound of their own block, whether it stands above or below them.

Tests used:
[1] = system: human cytomegalovirus strains HCMV-AD169; assay: In vitro inhibitory activity against human cytomegalovirus (CPE in MRC-5 cells); assay type: cell-based; details: for CPE of each well: 4 wells
Experimental: The eye drop delivery systems of ganciclovir prepared in the Examples were tested for its in vitro inhibitory activities against human cytomegalovirus (HCMV).
Human embryo lung fibroblasts (MRC-5) infected with human cytomegalovirus strains HCMV-AD169 were chosen and used in the experiment, and the antiviral activity of ganciclovir was investigated with half effective dose (EC50). Four groups were included in the experiment, that is, the test group of the eye drop delivery systems prepared in the Examples, the test group of ganciclovir technical drug, the negative control group (MRC-5 cells), and the positive control group (MRC-5 cells infected with HCMV-AD169). The samples of both test groups were diluted with the culture media to obtain 6 diluted concentrations: 500 μg/mL, 250 μg/mL, 125 μg/mL, 62.5 μg/mL, 31.25 μg/mL, and 15.63 μg/mL, and 4 wells were set for each diluted concentration. Cytopathic effect (CPE) was used as an indicator: 0 for no cytopathy, 1 for ≤25% cytopathy, 2 for 25%-50% cytopathy, 3 for 50%-75% cytopathy, and 4 for 75%-100% cytopathy. The half effective dose (EC50) was calculated using Reed-Munch method: EC50=10n; n=[(logarithm of the dilution degree corresponding to an efficiency of >50%)+(percentage of >50% efficiency−50%)/(percentage of >50% efficiency−percentage of <50% efficiency)×logarithm of the dilution coefficient.
The experimental procedures were as follows: MRC-5 cells were adjusting to approximate 1.5×10^5/mL, and then added a 96 well plate, 100 μL of culture media for each well. The plate was cultured in a 37° C., 5% CO2 cell incubator, and then the supernatant was discarded after the cells adhered to the wall as a monolayer. Except for the control groups, […] were added to each well of both test groups at a concentration of 100×TC50 (half of the virus infected cells obtained in the pre-experiment) and then incubated for 2 h. The supernatant was discarded. A series of test samples were added at 100 μL/well, and then the plate was further cultivated. The CPE of each well was observed. When the CPE of the positive control group reached more than 90%, the CPE of each well was recorded, and the half effective dose (EC50) was calculated using the Reed Munch method.

[2] = API concentration in rat vitreous body after eye drops (LC/MS/MS); assay type: in vivo, Sprague Dawley (SD) rats; details: 0.5 h after eye drops, 20 μL/eye; for concentration at 0.5 h: Sprague Dawley, rat, vitreous body, topical, read-out: API concentration in the vitreous body (vitreum) of rats
Experimental: Unless otherwise stated, the method for verifying the result of delivering medicaments to the posterior segment of the eye was as follows:
Experimental instrument and equipment: High performance liquid chromatography, model: LC-20AD (Shimadzu, Japan); mass spectrometer: model: API4000 triple quadrupole mass spectrometer (Applied Biosystems, USA); chromatographic column: Fortis Pace C18 […], 2.1×30 mm (Fortis, UK).
Rats: Healthy adult Sprague Dawley (SD) rats were divided into a test group and a control group, with 6 eyes in each group. The test group received eye drops of the ophthalmic preparation prepared in the Example of the present invention, while the control group received the suspension of medicament (2 mg) in 5 mL of physiological saline (vortex shaking prior to use), at a dosage of 20μL/eye. 0.5 h or 1 h after administration, the animals were euthanized, and the vitreous bodies were quickly collected. The vitreous samples were homogenized and stored at-80° C. To 10 μL of vitreous homogenate, was added 90 μL of 95% ethanol, and then the solution was mixed under ultrasonic for 2 min, followed by vortex mixing for 1 min, to obtain the vitreous homogenate; to 50 μL of the homogenate, was added 175 μL of methanol, and then the resultant solution was vortex mixed for 3 min, and centrifuged at 4° C. and 12000 rpm for 10 min. The supernatant was filtered using a 0.45 μm needle filter. The filtrate was subjected to LC/MS/MS (Positive ion mode, MRM SCAN) analysis.

[3] = system: Enterococcus faecalis ATCC29212; assay: In vitro bacteriostasis test (MIC, broth microdilution); assay type: cell-based; details: read-out: Minimum inhibitory concentration (MIC)
Experimental: (§1) The in vitro bacteriostasis test (MIC) was carried out on the moxifloxacin eye drop delivery system prepared in the Example. The moxifloxacin technical drug was used as the control, while the moxifloxacin eye drop delivery system prepared in Example 6 was used as the test sample, to prepare a drug sensitive plate, so that the drug sensitive plate contained 7-8 diluted concentrations of moxifloxacin technical drug (the control) and the test sample, which was obtained by dilution in a ratio of 1:2. 25 bacterial strains incubated for 18 h-24 h were chosen using inoculation loop, and transferred into sterile physiological saline to form a bacterial suspension equivalent to 0.5 MCF; the bacterial suspension was added to the liquid drug sensitive media, in which the ratio of the bacterial suspension to the liquid media was 1:200, and mixed well, then 100 μL of diluted bacterial solution was added to each well; the media was incubated at 35° C.±2° C. for 16-20 h; the growth of bacteria in each well was determined by turbidity, and observed from low concentration to high concentration. The minimum drug concentration that could inhibit bacterial growth was the MIC of the drug.

[4] = system: Escherichia coli ATCC25922; assay: as above; assay type: cell-based; details: read-out: Minimum inhibitory concentration (MIC)
Experimental: as §1

[5] = system: Haemophilus influenza ATCC49247; assay: as above; assay type: cell-based; details: read-out: Minimum inhibitory concentration (MIC)
Experimental: as §1

[6] = system: Pseudomonas aeruginosa ATCC27853; assay: as above; assay type: cell-based; details: read-out: Minimum inhibitory concentration (MIC)
Experimental: as §1

[7] = system: Staphylococcus aureus ATCC29213; assay: as above; assay type: cell-based; details: read-out: Minimum inhibitory concentration (MIC)
Experimental: as §1

[8] = system: Streptococcus pneumoniae ATCC49619; assay: as above; assay type: cell-based; details: read-out: Minimum inhibitory concentration (MIC)
Experimental: as §1

Streptococcus pneumoniae = assay: as above; assay type: cell-based; details: 3 unnamed strains (one per table line), read-out: Minimum inhibitory concentration (MIC)
Experimental: as §1

- concentration at 0.5 h [2]: < 1 ng/g
Compound: C[C@@H]1C[C@H]2[C@@H]3CCC4=CC(=O)C=C[C@]4(C)[C@@]3(F)[C@@H](O)C[C@]2(C)[C@@]1(O)C(=O)CO [dexamethasone]

- concentration at 0.5 h [2]: < 1 ng/g
Compound: C[C@H]1c2cccc(O)c2C(=O)C2=C(O)[C@]3(O)C(=O)C(C(N)=O)=C(O)[C@@H](N(C)C)[C@@H]3[C@@H](O)[C@@H]21 [doxycycline]

Further lines, the compound ahead of its results:

Compound: Nc1nc(O)c2ncn(COC(CO)CO)c2n1 [Ganciclovir technical drug, ganciclovir]
- Effective rate ([1]; 15.63 μg/mL): 21%
- CPE of each well ([1]; 15.63 μg/mL): 4 (4 for 75%-100% cytopathy) and 3 (3 for 50%-75% cytopathy)
- Effective rate ([1]; 31.25 μg/mL): 35%
- CPE of each well ([1]; 31.25 μg/mL): 3 (3 for 50%-75% cytopathy)
- Effective rate ([1]; 62.5 μg/mL): 64%
- CPE of each well ([1]; 62.5 μg/mL): 2 (2 for 25%-50% cytopathy) and 3 (3 for 50%-75% cytopathy)
- Effective rate ([1]; 125 μg/mL): 77%
- CPE of each well ([1]; 125 μg/mL): 2 (2 for 25%-50% cytopathy) and 1 (1 for ≤25% cytopathy)
- Effective rate ([1]; 250 μg/mL): 91%
- Effective rate ([1]; 500 μg/mL): 97%

Compound: COc1c(N2C[C@@H]3CCCN[C@@H]3C2)c(F)cc2c(=O)c(C(=O)O)cn(C3CC3)c12 [Moxifloxacin, moxifloxacin]
- MIC [3]: 0.5 µg/mL (≈ 1.25 µM)
- MIC [4]: 0.06 µg/mL (≈ 0.149 µM)
- MIC [5]: ≤ 0.032 µg/mL
- MIC [6]: 4 µg/mL (≈ 9.96 µM)
- MIC [7]: 0.12 µg/mL (≈ 0.299 µM)
- MIC [8]: 0.12 µg/mL (≈ 0.299 µM)
- MIC (Streptococcus pneumoniae): 0.25 µg/mL (≈ 0.623 µM)

Compound: O=C(O)CCCC[C@@H]1CCSS1 (racemic) [lipoic acid]
- API concentration in the vitreous body (vitreum) of rats [2]: < 1 ng/g
